Data published in the supplement of paper PMC10307832.

Compound: OCc1c[nH]c2ccccc12 [Indole-3-carbinol] + NC(=O)Nc1cc(-c2cccc(F)c2)sc1C(=O)N[C@H]1CCCNC1 [AZD7762] (partner 0.2 µM)
Experiment: relative viability (nuclei count vs DMSO), 5 days (fraction); higher = more cells survive
Method in brief: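 The day after seeding in 1536-well plates, lung cancer cell lines were treated by pin tool with a single drug, or with a fixed anchor-drug dose together with five library-drug doses (not always all listed) in √10 steps. After 5 days, a combined fix-and-stain solution (final 0.05% Triton X-100, 1% formaldehyde, 1 ug/ml Hoechst) was added. Nuclei counted on 4× images gave relative viability as treated counts over vehicle counts, reported as the median of duplicate plates.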

Cell Line	relative viability (first compound 0.253 µM)	relative viability (first compound 0.8 µM)	relative viability (first compound 2.53 µM)	relative viability (first compound 8 µM)
201T	0.623	0.591	0.614	0.725
A-427	0.72	0.763	0.908	0.778
ABC-1	0.72	0.974	0.618	0.833
BEN	0.635	0.706	0.732	0.784
CAL-12T	0.608	0.631	0.733	0.536
ChaGo-K-1	1	0.853	0.932	0.869
EKVX	0.759	0.752	0.744	0.633
EMC-BAC-2	1.15	1.17	1.05	1.11
EPLC-272H	0.26	0.236	0.18	0.214
H3255	0.892	0.755	0.911	0.747
HARA	0.355	0.239	0.313	0.463
HCC-15	1.31	1.14	1.38	1.26
HCC-44	1.03	1.03	1	0.967
HCC-78	0.623	0.608	0.643	0.696
HCC-366	0.265	0.242	0.355	0.258
HCC-827	0.228	0.192	0.213	0.265
HOP-62	0.65	0.61	0.631	0.607
LC-2-ad	0.865	0.873	0.828	0.82
LCLC-97TM1	0.39	0.297	0.236	0.234
LCLC-103H	0.802	0.786	0.86	0.81

Cell Line	relative viability (first compound 0.253 µM)	relative viability (first compound 0.8 µM)	relative viability (first compound 2.53 µM)	relative viability (first compound 8 µM)
LK-2	0.454	0.363	0.324	0.539
LOU-NH91	0.791	0.703	0.77	0.755
LU99A	0.379	0.392	0.434	0.329
LXF-289	1.25	1.1	1.13	1.03
NCI-H23	0.315	0.263	0.256	0.294
NCI-H322M	0.607	0.596	0.514	0.613
NCI-H358	0.56	0.489	0.591	0.507
NCI-H441	1.34	1.23	1.27	1.15
NCI-H460	0.652	0.602	0.679	0.645
NCI-H522	0.78	0.92	0.956	0.912
NCI-H596	1.06	1.07	1.11	1.06
NCI-H647	0.604	0.293	0.463	0.551
NCI-H650	1.01	1.21	0.967	1.04
NCI-H727	0.664	0.834	0.579	0.551
NCI-H838	1.05	0.84	0.975	0.883
NCI-H1355	0.859	0.806	0.799	0.778
NCI-H1395	0.404	0.41	0.379	0.399
NCI-H1437	1.21	1.22	1.15	1.09
NCI-H1651	0.448	0.441	0.438	0.437
NCI-H1666	0.914	0.743	0.827	0.739

Cell Line	relative viability (first compound 0.253 µM)	relative viability (first compound 0.8 µM)	relative viability (first compound 2.53 µM)	relative viability (first compound 8 µM)
NCI-H1703	0.155		0.113	0.103
NCI-H1734	0.519	0.601	0.551	0.512
NCI-H1755	0.463	0.42	0.5	0.42
NCI-H1792	0.734	0.786	0.901	0.77
NCI-H1793	0.424	0.468	0.507	0.455
NCI-H1915	0.655	0.625	0.767	0.737
NCI-H1944	0.517	0.441	0.509	0.54
NCI-H1975	0.624	0.79	0.764	0.613
NCI-H1993	0.827	0.876	0.691	0.843
NCI-H2085	0.965	1.01	1.05	0.893
NCI-H2087	1.31	1.46	1.33	1.15
NCI-H2126	0.999	1.08	1.02	1.01
NCI-H2170	1.01	0.898	0.89	0.894
NCI-H2347	0.936	0.676	0.702	0.765
NCI-H2405	0.839	0.727	0.755	0.659
NCI-H3122	1.1	1	1.07	0.899
PC-3 [JPC-3]	0.723	0.925	0.765	0.91
PC-14	0.342	0.315	0.331	0.327
RERF-LC-KJ	1.07	1.01	0.962	0.885
SW 900	0.625	0.619	0.705	0.624
